Residues, ends and D or L forms follow the SMILES beside them.

Sequence of h-mT1R2-471/T1R3mosaicA (Q8TE23 with tags, fused parts or gaps with the stated changes limits assumed): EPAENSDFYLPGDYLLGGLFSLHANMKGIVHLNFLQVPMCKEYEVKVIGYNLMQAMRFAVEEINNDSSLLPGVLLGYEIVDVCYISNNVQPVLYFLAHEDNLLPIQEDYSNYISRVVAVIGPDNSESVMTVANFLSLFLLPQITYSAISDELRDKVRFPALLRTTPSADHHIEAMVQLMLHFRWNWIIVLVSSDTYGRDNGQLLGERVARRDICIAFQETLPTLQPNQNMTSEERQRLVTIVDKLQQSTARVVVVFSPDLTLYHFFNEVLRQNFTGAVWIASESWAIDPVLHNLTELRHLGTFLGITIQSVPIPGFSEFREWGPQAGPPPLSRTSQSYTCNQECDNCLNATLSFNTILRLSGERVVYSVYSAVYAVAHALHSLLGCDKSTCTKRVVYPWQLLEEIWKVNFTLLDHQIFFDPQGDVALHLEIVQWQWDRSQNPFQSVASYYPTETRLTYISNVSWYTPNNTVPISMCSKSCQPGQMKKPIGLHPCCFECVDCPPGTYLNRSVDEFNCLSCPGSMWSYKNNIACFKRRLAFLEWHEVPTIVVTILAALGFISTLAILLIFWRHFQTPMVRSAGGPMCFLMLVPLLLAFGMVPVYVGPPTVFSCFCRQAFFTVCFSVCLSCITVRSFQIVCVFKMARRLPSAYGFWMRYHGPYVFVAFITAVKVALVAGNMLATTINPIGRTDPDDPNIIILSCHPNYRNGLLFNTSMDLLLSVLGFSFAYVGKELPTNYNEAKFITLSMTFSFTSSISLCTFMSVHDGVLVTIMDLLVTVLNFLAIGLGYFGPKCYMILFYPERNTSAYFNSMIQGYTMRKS
Sequence of h-mT1R2-471/T1R3mosaicA (Q925D8 with tags, fused parts or gaps with the stated changes limits assumed): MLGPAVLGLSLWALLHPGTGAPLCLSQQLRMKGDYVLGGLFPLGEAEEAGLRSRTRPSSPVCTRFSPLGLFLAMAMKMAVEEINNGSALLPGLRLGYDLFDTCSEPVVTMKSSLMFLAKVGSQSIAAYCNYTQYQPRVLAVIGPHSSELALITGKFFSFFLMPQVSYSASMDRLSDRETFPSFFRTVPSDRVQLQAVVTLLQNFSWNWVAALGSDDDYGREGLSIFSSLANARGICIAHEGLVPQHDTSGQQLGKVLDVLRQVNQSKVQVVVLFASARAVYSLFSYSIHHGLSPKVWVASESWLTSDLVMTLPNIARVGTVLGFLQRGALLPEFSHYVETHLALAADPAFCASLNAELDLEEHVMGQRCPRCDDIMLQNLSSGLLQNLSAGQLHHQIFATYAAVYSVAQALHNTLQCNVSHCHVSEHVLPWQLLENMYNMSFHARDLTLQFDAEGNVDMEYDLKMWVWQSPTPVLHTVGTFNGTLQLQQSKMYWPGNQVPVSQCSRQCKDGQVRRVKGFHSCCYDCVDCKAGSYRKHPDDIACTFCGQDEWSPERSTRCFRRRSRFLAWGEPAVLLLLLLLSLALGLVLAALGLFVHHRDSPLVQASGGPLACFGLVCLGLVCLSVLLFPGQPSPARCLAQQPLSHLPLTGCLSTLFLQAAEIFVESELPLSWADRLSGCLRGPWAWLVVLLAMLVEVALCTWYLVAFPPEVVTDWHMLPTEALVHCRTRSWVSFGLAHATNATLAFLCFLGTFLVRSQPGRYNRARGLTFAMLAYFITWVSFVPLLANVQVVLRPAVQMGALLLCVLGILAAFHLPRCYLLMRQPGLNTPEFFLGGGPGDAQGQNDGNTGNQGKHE

The assay addresses h-mT1R2-471/T1R3mosaicA (UniProt Q8TE23+Q925D8, A12W/A31M/A537S/A558R/A564V/A568V/A570T/A588V/A645S/A649T/A658V/A698V/A702T/A782V/A793V/A807V/C582S/C678S/D480N/E16H/E530V/E534N/E542M/E548N/E725V/F14L/F29L/F525Y/F541I/F612A/F622V/F665L/F695L/G696N/G701T/H484Y/H528R/H728R/I36V/I481V/I486P/I490V/I510L/I518V/I595M/I60P/I617V/I643V/I645L/I692L/I695G/I706V/I740A/I803L/K30R/K476T/K504M/K555R/K565R/K626T/K714N/K818R/K827G/L17P/L471T/L521P/L560F/L571I/L578I/L610P/L631F/L636F/L639V/L684P/L688V/L702I/L734M/L735F/L800F/L823M/L825Q/M19T/M492I/M616G/M644L/M682V/M690V/M744T/M748V/N477Y/N52R/N540G/N541S/N547G/N58S/N63T/N675D/N721H/P545F/P561R/P564S/P61V/P638T/P824S/Q32K/Q472E/Q474R/Q479S/Q536L/Q53S/Q546K/Q550E/Q555R/Q56R/Q611L/Q676H/Q757R/Q795R/Q831P/R473T/R498S/R632Q/R667S/S22P/S45E/S501P/S547N/S550A/S576L/S595F/S610P/S628F/S635P/S637R/S663R/S670G/S679G/S681F/S703N/S717H/S727G/S784D/S804G/T46A/T50G/T529S/T542A/T549I/T609V/T629S/T642S/T663I/T694M/T705I/T706G/T716I/T813A/V508I/V512P/V557A/V573A/V584A/V585L/V613L/V617M/V673M/V687A/V691A/V694A/V718L/V718M/V723A/V729T/V738A/V741L/V774I/V791M/V805L/V812A/V821L/W599R/W676R/W824R/Y533F/Y615F/Y671F/Y680C/Y769S/Y783H/Y794L). The settings on record: Table 4; genes h-mT471/T3mA (h-mT1R2-471, T1R3mA); HEK293E cells.
`CC1=CC(=O)NS(=O)(=O)O1` [Acesulfame K, acesulfame potassium] gave a S/N of 4.3.

Consider `COC(=O)[C@H](Cc1ccccc1)NC(=O)[C@H](CC(=O)O)NCCCc1ccc(OC)c(O)c1` [Advantame, advantame], for which the S/N came out at 10.0.

`COC(=O)[C@H](Cc1ccccc1)NC(=O)[C@@H](N)CC(=O)O` [Aspartame, aspartame] (HELM PEPTIDE1{D.F.[CO[*:1]]}$$$$V2.0) displayed a S/N of 7.9.

Turning to `COC(=O)[C@H](Cc1ccccc1)NC(=O)[C@H](CC(=O)O)NCCC(C)(C)C` [Neotame, neotame], the S/N is 8.3. With `C[C@H](NC(=Nc1ccc(C#N)cc1)NCC(=O)O)c1ccccc1` [SC-45647, [3-[(S)-1-phenylethyl]-2-(4-cyanophenyl)guanidino]acetic acid] the figure was 6.5; with `O=C1NS(=O)(=O)c2ccccc21.[Na]` [Saccharin Na, sodium saccharin], 3.9; with `OC[C@H]1O[C@H](O[C@]2(CCl)O[C@H](CCl)[C@@H](O)[C@@H]2O)[C@H](O)[C@@H](O)[C@H]1Cl` [Sucralose, sucralose], 7.1. With `OC[C@H]1O[C@@](CO)(O[C@H]2O[C@H](CO)[C@@H](O)[C@H](O)[C@H]2O)[C@@H](O)[C@@H]1O` [Sucrose, sucrose] the figure was 3.5.

(Values after patent publication US9341616B2, “Sweet taste receptor chimeric proteins and use thereof” (AJINOMOTO CO., INC., priority 2014, dated 2016).)
